Measurements published in patent US10722501B2 (BAYER AKTIENGESELLSCHAFT, priority 2016, dated 2020).

Biological target: T1, recombinant full-length human prolyl endopeptidase (PREP) (Homo sapiens, UniProt P48147)
T1 construct: To recombinant full-length human prolyl endopeptidase (PREP, R&D-Systems, 4308-SE); purchased R&D-Systems 4308-SE
T1 sequence (P48147 1-710): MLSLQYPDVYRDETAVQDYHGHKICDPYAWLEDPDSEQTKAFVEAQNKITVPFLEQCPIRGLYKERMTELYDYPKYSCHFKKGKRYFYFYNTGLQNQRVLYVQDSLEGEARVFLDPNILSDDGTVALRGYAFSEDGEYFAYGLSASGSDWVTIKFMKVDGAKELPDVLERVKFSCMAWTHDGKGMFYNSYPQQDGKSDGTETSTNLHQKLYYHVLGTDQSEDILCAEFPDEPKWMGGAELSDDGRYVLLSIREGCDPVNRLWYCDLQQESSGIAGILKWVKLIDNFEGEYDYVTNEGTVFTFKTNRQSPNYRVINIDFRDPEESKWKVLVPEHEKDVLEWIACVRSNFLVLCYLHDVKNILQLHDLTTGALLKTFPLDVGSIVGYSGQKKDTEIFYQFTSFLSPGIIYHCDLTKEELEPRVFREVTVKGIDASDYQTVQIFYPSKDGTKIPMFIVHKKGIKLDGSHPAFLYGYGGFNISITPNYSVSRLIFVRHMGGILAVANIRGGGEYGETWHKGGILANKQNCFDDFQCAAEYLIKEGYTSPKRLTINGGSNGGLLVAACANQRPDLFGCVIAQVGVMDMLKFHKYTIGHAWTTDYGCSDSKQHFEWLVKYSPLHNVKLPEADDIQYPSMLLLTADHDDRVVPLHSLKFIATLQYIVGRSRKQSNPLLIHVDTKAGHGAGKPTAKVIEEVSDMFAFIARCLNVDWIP
Test: Biochemical human prolyl endopeptidase (PREP) assay with fluorescently labelled substrate
Settings: substrate Z-Gly-Pro-AMC 50 μM, 32° C., 60 min; some as mean values from multiple independent determinations
Summary of the method: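 0.4 nM (final, example) recombinant PREP in pH 7.5 Tris buffer with EDTA, GSH, BSA and Brij-35; compounds at 1 nM to 30 μM. Reaction started with 50 μM Z-Gly-Pro-AMC and followed by fluorescence (ex 360/em 465 nm) at 32° C for 60 min. IC50 interpolated from percent activity based on initial slopes.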

SMILES	IC50 [nM]
O=C(C1CC(C(F)(F)F)Cc2nn(Cc3ccc(Cl)nc3)c(=O)n21)N1C[C@@H](F)[C@@H](F)C1 (single isomer, unassigned) [Example 250]	0.92
O=C([C@@H]1CCCc2nn(Cc3ccc(Cl)nc3)c(=O)n21)N1CCC2CC21 (single isomer, unassigned) [Example 197]	235
Cc1nc(C)c(Cn2nc3n(c2=O)C(C(=O)N2CCCC2)CCC3)nc1C (racemic) [Example 103, (5RS)-5-(Pyrrolidin-1-ylcarbonyl)-2-[(3,5,6-trimethylpyrazin-2-yl)methyl]-5,6,7,8-tetrahydro[1,2,4]triazolo[4,3-a]pyridin-3(2H)-one]	0.16
O=C(C1CCCc2nn(Cc3ccc(Cl)cn3)c(=O)n21)N1CCCC1 (racemic) [Example 33, (5RS)-2-[(5-Chloropyridin-2-yl)methyl]-5-(pyrrolidin-1-ylcarbonyl)-5,6,7,8-tetrahydro[1,2,4]triazolo[4,3-a]pyridin-3(2H)-one]	7.7
CC1Cc2nn(Cc3ccc(F)c(Cl)c3)c(=O)n2C(C(=O)N2CCC(F)(F)C2)C1 (racemic) [Example 331, (5RS,7RS)-2-(3-Chloro-4-fluorobenzyl)-5-[(3,3-difluoropyrrolidin-1-yl)carbonyl]-7-methyl-5,6,7,8-tetrahydro[1,2,4]triazolo[4,3-a]pyridin-3(2H)-one]	0.68
O=C(C1CC(C(F)(F)F)Cc2nn(Cc3ccnc(C(F)(F)F)c3F)c(=O)n21)N1CC(F)C1 (single isomer, unassigned) [Example 253, (5RS,7RS)-5-[(3-Fluoroazetidin-1-yl)carbonyl]-2-{[3-fluoro-2-(trifluoromethyl)pyridin-4-yl]methyl}-7-(trifluoromethyl)-5,6,7,8-tetrahydro[1,2,4]triazolo[4,3-a]pyridin-3(2H)-one]	120
Cc1ccc(Cn2nc3n(c2=O)C(C)(C(=O)N2CCCC2)CCC3)cc1 (racemic) [Example 105, 5(RS)-5-Methyl-2-(4-methylbenzyl)-5-(pyrrolidin-1-ylcarbonyl)-5,6,7,8-tetrahydro[1,2,4]triazolo[4,3-a]pyridin-3(2H)-one]	10.5
O=C(C1CCCc2nn(Cc3ccc(C(F)(F)F)nc3)c(=O)n21)N1CCC(F)(F)C1 (racemic) [Example 79, (5RS)-5-[(3,3-Difluoropyrrolidin-1-yl)carbonyl]-2-{[6-(trifluoromethyl)pyridin-3-yl]methyl}-5,6,7,8-tetrahydro[1,2,4]triazolo[4,3-a]pyridin-3(2H)-one]	6.7
O=C(C1C(C(F)(F)F)CCc2nn(Cc3ncc(Cl)cc3Cl)c(=O)n21)N1CCC(F)(F)C1 (single isomer, unassigned) [Example 290, (5RS,6RS)-2-[(3,5-Dichloropyridin-2-yl)methyl]-5-[(3,3-difluoropyrrolidin-1-yl)carbonyl]-6-(trifluoromethyl)-5,6,7,8-tetrahydro[1,2,4]triazolo[4,3-a]pyridin-3(2H)-one]	82
O=C(C1CC(C(F)(F)F)Cc2nn(Cc3ccnc(C(F)(F)F)c3F)c(=O)n21)N1CC(F)C1 (single isomer, unassigned) [Example 255, (5RS,7RS)-5-[(3-Fluoroazetidin-1-yl)carbonyl]-2-{[3-fluoro-2-(trifluoromethyl)pyridin-4-yl]methyl}-7-(trifluoromethyl)-5,6,7,8-tetrahydro[1,2,4]triazolo[4,3-a]pyridin-3(2H)-one]	15.1
Cc1ccc(Cn2nc3n(c2=O)C(C(=O)N2CC(C(F)(F)F)C2)CCC3)cc1 (racemic) [Example 124, (5RS)-2-(4-Methylbenzyl)-5-{[3-(trifluoromethyl)azetidin-1-yl]carbonyl}-5,6,7,8-tetrahydro[1,2,4]triazolo[4,3-a]pyridin-3(2H)-one]	14
Cn1ccc(Cn2nc3n(c2=O)C(C(=O)N2CCC(F)(F)C2)CCC3)n1 (racemic) [Example 90, (5RS)-5-[(3,3-Difluoropyrrolidin-1-yl)carbonyl]-2-[(1-methyl-1H-pyrazol-3-yl)methyl]-5,6,7,8-tetrahydro[1,2,4]triazolo[4,3-a]pyridin-3(2H)-one]	9.8
O=C(C1C(C(F)(F)F)CCc2nn(Cc3ccc(Cl)cn3)c(=O)n21)N1CC[C@H](F)C1 (single isomer, unassigned) [Example 299]	3.5
O=C([C@@H]1CCCc2nn(Cc3ccc(F)c(Cl)c3)c(=O)n21)N1CCC2CC21 (single isomer, unassigned) [Example 203]	0.82
O=C(C1CC(C(F)(F)F)Cc2nn(Cc3ncc(Cl)cc3F)c(=O)n21)N1C[C@@H](F)[C@@H](F)C1 (mixture of isomers) [Example 266, (5RS,7RS)-2-[(5-Chloro-3-fluoropyridin-3-yl)methyl]-5-{[(3R,4S)-3,4-difluoropyrrolidin-1-yl]carbonyl}-7-(trifluoromethyl)-5,6,7,8-tetrahydro[1,2,4]triazolo[4,3-a]pyridin-3(2H)-one]	5.1

More lines, now with the values ahead:

IC50 [nM]	SMILES
1.75	O=C([C@@H]1CCCc2nn(CCc3ncc(C(F)(F)F)cc3Cl)c(=O)n21)N1CC[C@H](F)C1 [Example 342, (5S)-2-{2-[3-Chloro-5-(trifluoromethyl)pyridin-2-yl]ethyl}-5-{[(3S)-3-fluoropyrrolidin-1-yl]carbonyl}-5,6,7,8-tetrahydro[1,2,4]triazolo[4,3-a]pyridin-3(2H)-one]
0.18	O=C([C@@H]1CCCc2nn(Cc3cc(C(F)(F)F)nc4ccccc34)c(=O)n21)N1C[C@@H](F)[C@@H](F)C1 [Example 497, (5S)-5-{[(3R,4S)-3,4-Difluoropyrrolidin-1-yl]carbonyl}-2-{[2-(trifluoromethyl)quinolin-4-yl]methyl}-5,6,7,8-tetrahydro[1,2,4]triazolo[4,3-a]pyridin-3(2H)-one]
3	O=C([C@@H]1CCCc2nn(Cc3ncc(F)cc3F)c(=O)n21)N1CCC(F)(F)C1 [Example 412, (5S)-2-[(3,5-Difluoropyridin-2-yl)methyl]-5-[(3,3-difluoropyrrolidin-1-yl)carbonyl]-5,6,7,8-tetrahydro[1,2,4]triazolo[4,3-a]pyridin-3(2H)-one]
18	O=C([C@@H]1CCC(F)(F)c2nn(Cc3ncc(F)cc3F)c(=O)n21)N1CCC(F)(F)C1 [Example 588, (5S)-2-[(3,5-Difluoropyridin-2-yl)methyl]-5-[(3,3-difluoropyrrolidin-1-yl)carbonyl]-8,8-difluoro-5,6,7,8-tetrahydro[1,2,4]triazolo[4,3-a]pyridin-3(2H)-one]
63	O=C([C@@H]1CCCc2nn(Cc3nnc(C(F)(F)F)o3)c(=O)n21)N1CCC(F)(F)C1 [Example 541, (5S)-5-[(3,3-Difluoropyrrolidin-1-yl)carbonyl]-2-{[5-(trifluoromethyl)-1,3,4-oxadiazol-2-yl]methyl}-5,6,7,8-tetrahydro[1,2,4]triazolo[4,3-a]pyridin-3(2H)-one]
1.4	O=C(C1CC(C(F)(F)F)Cc2nn(Cc3ncc(F)cc3Cl)c(=O)n21)N1CC[C@H](F)C1 (single isomer, unassigned) [Example 572]
0.63	O=C([C@@H]1CCCc2nn(Cc3ccc(Cl)nc3)c(=O)n21)N1CC[C@H](F)C1 [Example 422, (5S)-2-[(6-Chloropyridin-3-yl)methyl]-5-{[(3S)-3-fluoropyrrolidin-1-yl]carbonyl}-5,6,7,8-tetrahydro[1,2,4]triazolo[4,3-a]pyridin-3(2H)-one]
0.33	O=C([C@@H]1CCCc2nn(Cc3ccc(F)cc3Cl)c(=O)n21)N1CC[C@H](F)C1 [Example 475, (5S)-2-(2-Chloro-4-fluorobenzyl)-5-{[(3S)-3-fluoropyrrolidin-1-yl]carbonyl}-5,6,7,8-tetrahydro[1,2,4]triazolo[4,3-a]pyridin-3(2H)-one]
2.1	CC1Cc2nn(Cc3ccnc(C(F)(F)F)c3F)c(=O)n2C(C(=O)N2C[C@@H](F)[C@@H](F)C2)C1 (mixture of isomers) [Example 333, (5RS,7RS)-5-{[(3R,4S)-3,4-Difluoropyrrolidin-1-yl]carbonyl}-2-{[3-fluoro-2-(trifluoromethyl)pyridin-4-yl]methyl}-7-methyl-5,6,7,8-tetrahydro[1,2,4]triazolo[4,3-a]pyridin-3(2H)-one]
3.4	O=C([C@@H]1CCCc2nn(Cc3nccc(C(F)(F)F)c3Cl)c(=O)n21)N1CCC(F)(F)C1 [Example 387, (5S)-2-{[3-Chloro-4-(trifluoromethyl)pyridin-2-yl]methyl}-5-[(3,3-difluoropyrrolidin-1-yl)carbonyl]-5,6,7,8-tetrahydro[1,2,4]triazolo[4,3-a]pyridin-3(2H)-one]
3.4	O=C([C@@H]1CCCc2nn(Cc3ncc(C(F)(F)F)cc3Cl)c(=O)n21)N1CC[C@@H](F)C1 [Example 401, (5S)-2-{[3-Chloro-5-(trifluoromethyl)pyridin-2-yl]methyl}-5-{[(3R)-3-fluoropyrrolidin-1-yl]carbonyl}-5,6,7,8-tetrahydro[1,2,4]triazolo[4,3-a]pyridin-3(2H)-one]
